The source of these data is patent US12673951B2, “Substituted pyrazoloquinazolinone compounds and application thereof” (IMPACT THERAPEUTICS (SHANGHAI), INC, priority 2019, dated 2026).

Assay [1] deals with human breast cancer cell MDA-MB-468. As to the kind of experiment: MTT assay, growth of MDA-MB-468 cells. The class given is cell-based. The note with it: Homo sapiens, 168 h; MDA-MB-468 cells, 7 days, MTT; read-out: IC50, growth of MDA-MB-468. As for the experimental part:
The cells were seeded into 96-well cell culture plate with appropriate cell density and incubated overnight in a 37° C. 5% CO2 incubator. […] 5 μL of each concentration was added to 120 μL of medium (25 times diluted) and mixed by shaking. The overnight cells were taken and the culture medium was removed, 195 μL of fresh medium was added to each well, and 5 μL of diluted medium containing the corresponding concentration of the tested sample was added, respectively, and the culture plate was then placed in the 5% CO2 cell culture incubator at 37° C. for 7 days (On the fourth day, the medium containing drugs was removed and fresh medium containing drugs was added for continuous cultivation.). After removing the original solution, 100 μL of fresh serum-free DMEM medium containing MTT (0.5 mg/mL) was added to each well, the culture was continued. […] GraphPad Prism 6.0 was used to analyze the data. The inhibitory activity of compounds on cell proliferation was plotted based on cell viability and compound concentration.
(Tetrazolium dyes change colour on reduction, which living cells bring about.)

The next assay deals with T1, ATM enzyme (Homo sapiens, UniProt Q13315).
T1 construct: purchased Eurofins 14-933
As to the kind of experiment: ATM kinase assay (HTRF). The note with it: 0.5 h; C 1 μm; read-out: Inh (%) ATM kinase inhibition rate. The class given is biochemical. As for the experimental part:
The mixture was centrifuged at 1000 rpm for 1 minute, and reacted at room temperature away from light for 30 minutes. Then 5 μL of EDTA stop solution (250 mM) was added to stop the reaction. After 5 μL of detection mixture (Anti-phospho-p53 (ser15)-K (Cisbio, #61P08KAE, 0.084 ng/μL) and Anti-GST-d2 (Cisbio, #61GSTDLA, 5.00 ng/μL)) was finally added to each well, then incubate the plate overnight at room temperature.
Relative fluorescence ratio was calculated: Ratio665 nm/615 nm-Ratiobackground, and inhibition rate %=(1−(relative fluorescence ratio of test compound well−relative fluorescence ratio of positive control well)/(relative fluorescence ratio of negative control well−relative fluorescence ratio of positive control well))×100 was calculated. Data were analyzed using GraphPad Prism6.0, and fitted using the curve equation: Y=Bottom+(Top−Bottom)/(1+10^((Log IC50−X)×HillSlope)) and IC50 values were calculated.
A general note: Time-resolved FRET reads energy transfer from a long-lived donor to a nearby acceptor.

Assay [2] deals with human colon cancer cell SW620. In words: MTT assay, growth of SW620 cells, compounds combined with CPT-11. The class given is cell-based. To be noted: Homo sapiens, SW-620, 120 h; SW620 cells, medium containing 205 nM CPT-11, 5 days, MTT; read-out: IC50, growth of SW620 combined with CPT-11. As to the method: The cells were seeded into 96-well cell culture plate with appropriate cell density and incubated overnight in a 37° C. 5% CO2 incubator. […] 5 μL of each concentration was added to 120 μL of medium (25 times diluted) and mixed by shaking. […] After removing the original solution, 100 μL of fresh serum-free DMEM medium containing MTT (0.5 mg/mL) was added to each well, the culture was continued. […] GraphPad Prism 6.0 was used to analyze the data. The inhibitory activity of compounds on cell proliferation was plotted based on cell viability and compound concentration.

T1 sequence (Q13315 whole entry): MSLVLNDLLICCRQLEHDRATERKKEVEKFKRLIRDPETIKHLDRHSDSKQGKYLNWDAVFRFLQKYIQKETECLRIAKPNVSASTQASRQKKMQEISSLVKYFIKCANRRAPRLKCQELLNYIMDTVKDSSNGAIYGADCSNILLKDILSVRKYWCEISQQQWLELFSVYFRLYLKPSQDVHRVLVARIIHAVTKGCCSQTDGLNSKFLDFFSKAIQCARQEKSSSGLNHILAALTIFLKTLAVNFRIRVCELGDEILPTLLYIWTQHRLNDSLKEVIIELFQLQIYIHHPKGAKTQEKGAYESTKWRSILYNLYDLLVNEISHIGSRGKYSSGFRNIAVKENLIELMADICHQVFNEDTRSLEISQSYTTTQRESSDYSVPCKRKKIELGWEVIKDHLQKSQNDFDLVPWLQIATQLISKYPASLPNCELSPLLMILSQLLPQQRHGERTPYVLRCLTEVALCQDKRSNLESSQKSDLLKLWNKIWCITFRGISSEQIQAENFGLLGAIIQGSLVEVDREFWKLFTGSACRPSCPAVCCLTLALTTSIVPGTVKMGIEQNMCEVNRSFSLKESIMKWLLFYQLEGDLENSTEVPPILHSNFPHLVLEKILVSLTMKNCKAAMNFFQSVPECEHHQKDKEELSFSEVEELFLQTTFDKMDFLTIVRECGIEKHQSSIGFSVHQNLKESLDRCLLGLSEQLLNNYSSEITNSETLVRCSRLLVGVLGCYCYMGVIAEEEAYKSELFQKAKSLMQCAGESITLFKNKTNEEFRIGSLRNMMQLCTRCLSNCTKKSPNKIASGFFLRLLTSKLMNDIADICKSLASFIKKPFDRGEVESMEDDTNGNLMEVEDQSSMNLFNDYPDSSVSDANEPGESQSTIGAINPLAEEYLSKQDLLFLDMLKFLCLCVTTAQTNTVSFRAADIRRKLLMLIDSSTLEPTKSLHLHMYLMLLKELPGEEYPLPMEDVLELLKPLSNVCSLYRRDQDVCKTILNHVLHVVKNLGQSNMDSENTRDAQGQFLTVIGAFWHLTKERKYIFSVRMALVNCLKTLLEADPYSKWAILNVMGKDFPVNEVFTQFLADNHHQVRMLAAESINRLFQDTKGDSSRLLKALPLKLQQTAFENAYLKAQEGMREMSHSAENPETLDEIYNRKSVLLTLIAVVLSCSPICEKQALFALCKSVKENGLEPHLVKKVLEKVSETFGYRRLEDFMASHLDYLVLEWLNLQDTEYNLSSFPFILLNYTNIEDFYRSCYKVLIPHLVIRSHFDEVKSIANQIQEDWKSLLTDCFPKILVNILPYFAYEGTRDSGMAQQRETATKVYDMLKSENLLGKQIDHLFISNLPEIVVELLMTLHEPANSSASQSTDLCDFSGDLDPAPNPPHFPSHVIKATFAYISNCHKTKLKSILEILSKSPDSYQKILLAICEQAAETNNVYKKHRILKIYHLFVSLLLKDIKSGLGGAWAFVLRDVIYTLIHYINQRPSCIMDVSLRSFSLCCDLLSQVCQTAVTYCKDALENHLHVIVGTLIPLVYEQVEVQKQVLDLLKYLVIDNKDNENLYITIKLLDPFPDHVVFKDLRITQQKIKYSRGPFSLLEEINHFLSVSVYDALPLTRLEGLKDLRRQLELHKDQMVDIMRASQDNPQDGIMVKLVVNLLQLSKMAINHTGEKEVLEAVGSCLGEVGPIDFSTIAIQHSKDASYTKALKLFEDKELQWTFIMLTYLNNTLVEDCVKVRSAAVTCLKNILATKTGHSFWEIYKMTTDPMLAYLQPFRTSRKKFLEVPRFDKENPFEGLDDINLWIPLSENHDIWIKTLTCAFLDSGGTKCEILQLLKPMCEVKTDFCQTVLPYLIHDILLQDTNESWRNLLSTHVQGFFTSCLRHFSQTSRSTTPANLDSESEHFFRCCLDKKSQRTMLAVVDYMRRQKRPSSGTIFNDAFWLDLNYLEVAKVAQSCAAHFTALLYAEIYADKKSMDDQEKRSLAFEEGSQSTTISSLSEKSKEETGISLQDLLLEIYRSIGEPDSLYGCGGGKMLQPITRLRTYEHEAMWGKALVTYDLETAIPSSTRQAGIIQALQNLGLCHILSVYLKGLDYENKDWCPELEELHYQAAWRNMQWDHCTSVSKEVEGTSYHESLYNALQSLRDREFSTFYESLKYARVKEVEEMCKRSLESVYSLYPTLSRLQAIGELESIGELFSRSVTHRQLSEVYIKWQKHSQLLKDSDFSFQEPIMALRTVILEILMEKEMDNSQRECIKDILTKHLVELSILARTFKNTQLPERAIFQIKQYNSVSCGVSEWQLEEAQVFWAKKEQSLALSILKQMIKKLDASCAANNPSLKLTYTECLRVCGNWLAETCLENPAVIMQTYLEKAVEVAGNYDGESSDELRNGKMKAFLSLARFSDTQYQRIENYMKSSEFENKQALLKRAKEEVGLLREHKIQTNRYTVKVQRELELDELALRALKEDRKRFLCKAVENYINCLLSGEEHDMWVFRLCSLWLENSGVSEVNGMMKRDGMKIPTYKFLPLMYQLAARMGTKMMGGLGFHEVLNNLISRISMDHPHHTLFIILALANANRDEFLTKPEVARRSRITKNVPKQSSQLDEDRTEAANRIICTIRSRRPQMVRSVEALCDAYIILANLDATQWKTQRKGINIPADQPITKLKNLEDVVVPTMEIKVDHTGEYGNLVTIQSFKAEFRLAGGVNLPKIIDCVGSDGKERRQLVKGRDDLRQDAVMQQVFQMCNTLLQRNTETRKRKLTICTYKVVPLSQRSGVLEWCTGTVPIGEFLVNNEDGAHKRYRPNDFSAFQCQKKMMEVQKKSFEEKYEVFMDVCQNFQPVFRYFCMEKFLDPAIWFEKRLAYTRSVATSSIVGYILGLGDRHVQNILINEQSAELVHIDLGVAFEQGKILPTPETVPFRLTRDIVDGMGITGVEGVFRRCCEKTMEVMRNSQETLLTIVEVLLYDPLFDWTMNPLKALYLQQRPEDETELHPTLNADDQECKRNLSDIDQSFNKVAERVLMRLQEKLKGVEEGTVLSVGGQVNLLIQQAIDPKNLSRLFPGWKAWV

The IC50 is the concentration needed to halve the response being measured. As usually defined, the inhibition is the relative decrease from the control value, in per cent. For `CCn1c(=O)c(C2CCOCC2)c2c3cc(-c4ccc(OCCCN(C)C)nc4)ccc3ncn21` [Example 26, 9-(6-(3-(dimethylamino)propoxy)pyridin-3-yl)-3-ethyl-1-(tetrahydro-2H-pyran-4-yl)pyrazolo[1,5-c]quinazolin-2(3H)-one], the IC50 worked out at 123 nM in assay [1] and 142 nM in assay [2]. In addition, the inhibition at 1 µM on ATM enzyme worked out at 66.5%.
